According to ChEMBL document CHEMBL1201862, “PubChem BioAssay data set” (2004):
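Dose response: 5 concentrations. Exposure: 48 h. Format: 96-well plates. Endpoint: linear interpolation; highest concentration if not reached. GI50 is the concentration that inhibits growth by half.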 Active and inactive are the calls of the source. Cut-off read from the data, not from the text of the source: active = GI50 up to about 1.1 µM and inactive = higher.

Key:
Experiment in all cases: inhibition of tumour cell growth, NCI panel, 48 h
[1] = tested on: 786-0
[2] = tested on: A498
[3] = tested on: A549
[4] = tested on: ACHN
[5] = tested on: COLO 205
[6] = tested on: DLD-1
[7] = tested on: DMS-114
[8] = tested on: EKVX
[9] = tested on: HCC 2998
[10] = tested on: HCT-116
[11] = tested on: HCT-15
[12] = tested on: HL-60
[13] = tested on: HOP-18
[14] = tested on: HOP-62
[15] = tested on: HOP-92
[16] = tested on: HT-29
[17] = tested on: IGROV-1
[18] = tested on: K562
[19] = tested on: KM-20L2
[20] = tested on: KM12
[21] = tested on: LOX IMVI
[22] = tested on: LXFL 529
[23] = tested on: M14
[24] = tested on: M19-MEL
[25] = tested on: MOLT-4
[26] = tested on: Malme-3M
[27] = tested on: NCI-H226
[28] = tested on: NCI-H23
[29] = tested on: NCI-H460
[30] = tested on: NCI-H522
[31] = tested on: OVCAR-3
[32] = tested on: OVCAR-4
[33] = tested on: OVCAR-5
[34] = tested on: OVCAR-8
[35] = tested on: RPMI-8226
[36] = tested on: RXF 393
[37] = tested on: RXF 631
[38] = tested on: SF-268
[39] = tested on: SF-295
[40] = tested on: SF-539
[41] = tested on: SK-MEL-28
[42] = tested on: SK-MEL-2
[43] = tested on: SK-MEL-5
[44] = tested on: SK-OV-3
[45] = tested on: SN12C
[46] = tested on: SNB-19
[47] = tested on: SNB-75
[48] = tested on: SNB-78
[49] = tested on: SW-620
[50] = tested on: TK-10
[51] = tested on: U-251
[52] = tested on: UACC-257
[53] = tested on: UACC-62
[54] = tested on: UO-31
[55] = tested on: XF498
[56] = tested on: CAKI-1
[57] = tested on: DMS-273

Measured: GI50

COC(=O)CCC(NC(=S)N/N=C(\C)c1nccs1)C(=O)OC (centres undefined)
inactive: [1] 69.3 µM | [2] > 100 µM | [3] 74.8 µM | [4] 47.6 µM | [5] 11.3 µM | [6] 40.6 µM | [7] 22.6 µM | [8] 67.6 µM | [9] 52.5 µM | [10] 34.4 µM | [12] 10 µM | [13] 21.2 µM | [14] 48.8 µM | [15] > 100 µM | [16] 73.5 µM | [17] 73.5 µM | [18] 16.2 µM | [19] 31.8 µM | [20] > 100 µM | [21] 52 µM | [22] 60.4 µM | [23] 41.8 µM | [24] 50.5 µM | [25] > 10 µM | [26] > 100 µM | [27] 53.7 µM | [28] > 100 µM | [29] 53.3 µM | [30] 26.4 µM | [31] 31.3 µM | [32] 45.8 µM | [33] 53 µM | [34] 68.4 µM | [35] 3.23 µM | [36] 42.2 µM | [37] 58.2 µM | [38] 56.6 µM | [39] 87.7 µM | [40] > 100 µM | [41] > 100 µM | [42] > 100 µM | [43] 36.4 µM | [44] > 100 µM | [45] > 100 µM | [46] > 100 µM | [47] 68.2 µM | [48] > 100 µM | [49] 47.5 µM | [50] > 100 µM | [51] 78.2 µM | [52] > 100 µM | [53] 28.1 µM | [54] 49.3 µM | [55] > 100 µM
46.3 µM: [11]

Sc1ccccc1S
> 100 µM: [11]
inactive: [1] > 100 µM | [3] > 100 µM | [4] > 100 µM | [56] > 100 µM | [5] > 100 µM | [6] > 100 µM | [7] > 100 µM | [57] > 100 µM | [8] > 10 µM | [9] > 100 µM | [12] > 100 µM | [13] > 100 µM | [14] > 100 µM | [15] > 100 µM | [16] > 100 µM | [17] > 100 µM | [18] > 100 µM | [19] > 100 µM | [21] > 100 µM | [22] > 100 µM | [23] > 100 µM | [24] > 100 µM | [26] > 100 µM | [28] > 100 µM | [29] > 100 µM | [31] > 100 µM | [32] > 100 µM | [34] > 10 µM | [36] > 100 µM | [37] > 100 µM | [38] > 100 µM | [39] > 100 µM | [41] > 100 µM | [44] > 100 µM | [45] > 100 µM | [46] > 100 µM | [48] > 100 µM | [49] > 100 µM | [50] > 10 µM | [51] > 100 µM | [53] > 100 µM | [54] > 10 µM | [55] > 100 µM
